Test results: patent publication US12083096B2, “Composition containing artesunate” (priority 2016, dated 2024)

Legend:
[1] = time to dissolve artesunate powder in aqueous base solution to a clear solution; assay type: physicochemical; details: 10 mg of artesunate with 5% sodium bicarbonate solution
Protocol: The formulation was prepared prior to use by: providing artesunate; providing a solution comprising an organic base; and adding the solution to artesunate to provide the formulation. For example, the injectable formulation of the present disclosure was prepared by mixing artesunate with an aqueous solution containing a base described herein. Without wishing to be bound by theory, artesunate becomes negatively charged and dissolved. The formulation is freshly prepared immediately before use to minimize instability. In some embodiments, the injectable formulation is prepared by adding a solution of the disclosed bases to artesunate powder. The solution is about 5% glucose, normal saline, or about 5% glucose saline solution. Then the mixture is mixed gently to provide a clear injectable solution.
The formulation of the present disclosure is very convenient to prepare.

[2] = in vivo; cited from earlier work
[3] = cited from earlier work
[4] = cited from earlier work; remark: listed apart in the source

time needed to dissolve [1]: five to seven
SMILES: C[C@H]1[C@H](OC(=O)CCC(=O)O)O[C@@H]2O[C@@]3(C)CC[C@H]4[C@H](C)CC[C@@H]1[C@@]24OO3 [artesunate]
plasma half-life [2]: about 20 minutes | solubility in organic solvents ([3]; organic solvents, such as acetone and methanol): soluble | solubility in water ([3]; water): slightly soluble | stability under basic and acidic conditions [4]: unstable
